Where two headings read alike, the source gives them in different places.
Assays:
HCT-8 cells = assay: in vitro proliferating human colon adenocarcinoma (HCA) cell screen; type: cell-based
Method: One test protocol is the in vitro proliferating human colon adenocarcinoma (HCA) cell screen. In this test, HCT-8 cells (HCA cell line received from Yale University) are trypsinized using trypsin-EDTA. A single cell suspension is achieved by passing the cells through a 26 gauge needle with a 20 cc syringe. A cell suspension is prepared using RPMI 1640 + 10% FCS + 50) g/ml gentamicin sulfate with a cell concentration of approximately 30,000 cells/ml. The cell suspension is dispensed in Linbro 24-well plates; 1 ml/well. The plates are incubated for approximately 48 hours at 37°C in a 5% C02 atmosphere. At this time test compounds are added in the appropriate concentration. Five µl of the 200 µg/ml stock solution is added to each well in primary test. Ten µl of the appropirate dilution is added to each well for a titration test. The plates are re-incubated an additional 60 to 65 hours at 37°C in a 5% C02 atmosphere. The cells are lysed using a mix of cationic surfactant, glacial acetic acid, and sodium chloride. Two ml of the lysed cell suspension from each well is added to 8 ml of diluent. The number of nuclei is determined using a Coulter counter (ZBI model), and a percent growth for each drug concentration is calculated. From this, an ID50 molar concentration of a compound (that results in 50% inhibition of growth) is determined.

[1] = test system: Penicillium avellaneum M2988; assay: in vitro antibacterial/antifungal (ABF) agar-disk diffusion test; type: cell-based; conditions: Hamigera avellanea, read-out: ABF Zone Diameter (cont. in mg/ml) P. Avell-aneum; for zone of inhibition at 3000 µg/mL: 3 mg/ml
Method: (§1) Still another test protocol is the in vitro antibacterial/antifungal (ABF) test. Compounds are tested for antimicrobial activity in an agar-disk diffusion assay, a standard microbiological technique for testing antibiotics'. After incubation of each culture with a test compound, a zone of inhibition is determined. The zone diameter (mm) of active compounds ranges from a minimum of 13.5 mm to as high as 60 mm, with a greater diameter reflecting higher activity. For convenience, values are reported for two gram-negative bacteria (Aerobacter aerogenes 0126 and Escherichia coli 04863), two gram-positive bacteria (Bacillus subtilis 04555 and Streptococcus faecalis 05045 utilizing AM-09 medium), and one mycelial fungus (Penicillium avellaneum M2988).

[2] = test system: Aerobacter aerogenes 0126; assay: as above; type: cell-based; conditions: Klebsiella aerogenes, read-out: ABF Zone Diameter (cont. in mg/ml) A. Aero-genes; for zone of inhibition at 3000 µg/mL: 3 mg/ml; for zone of inhibition at 500 µg/mL: 0.5 mg/ml
Method: as §1

[3] = test system: Streptococcus faecalis 05045; assay: as above; type: cell-based; conditions: Enterococcus faecalis, AM-09 medium, read-out: ABF Zone Diameter (cont. in mg/ml) S. Fae-calis; for zone of inhibition at 3000 µg/mL: 3 mg/ml; for zone of inhibition at 1000 µg/mL: 1 mg/ml
Method: as §1

Escherichia coli 04863 = assay: as above; type: cell-based; conditions: read-out: ABF Zone Diameter (cont. in mg/ml) E. Coli; for zone of inhibition at 3000 µg/mL: 3 mg/ml
Method: as §1

Bacillus subtilis 04555 = assay: as above; type: cell-based; conditions: read-out: ABF Zone Diameter (cont. in mg/ml) B. Sub-tilis; for zone of inhibition at 3000 µg/mL: 3 mg/ml; for zone of inhibition at 1000 µg/mL: 1 mg/ml; for zone of inhibition at 500 µg/mL: 0.5 mg/ml
Method: as §1

L1210 cells = assay: L1210 murine leukemia cell growth inhibition in vitro; type: cell-based; conditions: Mus musculus, 72 h
Method: Another test protocol uses L1210 cells, a murine leukemia cell line, grown in RPMI 1640 supplemented with 5% fetal bovine serum and gentamicin ([…]). Drug dilutions are prepared in the appropriate solvent and 20 µl of each dilution are added to 24-well Linbro tissue culture plates, followed by the addition of 2.0 ml of cell suspension containing 3 x 10^4 cells per ml. Solvent and medium controls are included in each test. After incubation at 37°C forthree days in 5% C02, the contents of each well are removed and the cells counted in a ZBI Coulter counter. Percent growth are calculated relative to the controls and the levels of drug activity are expressed as ID50 in moles per liter.

[4] = test system: lymphocytic leukemia P388; assay: in vivo lymphocytic leukemia P388 test; set-up: species or system mice; conditions: for response vs control in vivo at 6.25 mg/kg: Dose 6.25 mg/kg intraperitoneally once daily for five days; for response vs control in vivo at 12.5 mg/kg: Dose 12.50 mg/kg intraperitoneally once daily for five days; for response vs control in vivo at 25 mg/kg: Dose 25.00 mg/kg intraperitoneally once daily for five days; for response vs control in vivo at 50 mg/kg: Dose 50.00 mg/kg intraperitoneally once daily for five days; for P388 in vivo Cures: remark printed beside T/C × 100
Method: Another test protocol is the in vivo lymphocytic leukemia P388 test. The animals used are either male or female CD2F, mice. There are six or seven animals per test group. The tumor transplant is by intraperitoneal injection of dilute ascitic fluid containing cells of lymphocytic leukemia P388. The test compounds are administered intraperitoneally once daily for five consecutive days at various doses following tumor inoculation. The animals are weighed and survivors are recorded on a regular basis for 30 days. A compound is designated "toxic" if, at a given dose, all animals died prior to four days after the first injection of drug. A ratio of survival time for treated (T)/control (C) animals is calculated. A criterion for efficacy is a ratio T/C times 100 greater than or equal to 125. See Cancer Chemotherapy Reports, Part 3, 3; 1 (1972) for a comprehensive discussion of the protocol.

[5] = Table 2, 60 to 65 hours with compound, read-out: HCA—3 in vitro IC50
[6] = Table 2, three days incubation, read-out: L1210 in vitro IC50
[7] = Mus musculus, P388, ip, 120 h, read-out: P388 in vivo T/C × 100
[8] = Table 1, 60 to 65 hours with compound, 50% inhibition of growth, read-out: HCA—3 in vitro ID50
[9] = Table 1, three days incubation, 50% inhibition of growth, read-out: L1210 in vitro ID50

IC50 (HCT-8 cells; [8]) | IC50 (L1210 cells; [9]) | Structure (SMILES) | zone of inhibition at 3000 µg/mL [1] | zone of inhibition at 3000 µg/mL [2] | zone of inhibition at 3000 µg/mL (Escherichia coli 04863) | zone of inhibition at 3000 µg/mL (Bacillus subtilis 04555) | response vs control in vivo at 12.5 mg/kg [4, 7] | response vs control in vivo at 25 mg/kg [4, 7] | response vs control in vivo at 50 mg/kg [4, 7] | zone of inhibition at 500 µg/mL [2] | zone of inhibition at 3000 µg/mL [3] | zone of inhibition at 1000 µg/mL [3] | also measured
1800 nM | 2000 nM | CN(C)CCCn1nc2c3c(c(N)ccc31)Sc1ccccc1-2 [CH2CH2CH2N(CH3)2 / NH2] | 16 mm | – | 15 mm | 0 mm | – | – | 121% | 16 mm | 15 mm | – | response vs control in vivo at 100 mg/kg ([4]; Mus musculus, P388, ip, 120 h, Dose 100.00 mg/kg intraperitoneally once daily for five days, read-out: P388 in vivo T/C × 100): 182%; response vs control in vivo at 200 mg/kg ([4]; Mus musculus, P388, ip, 120 h, Dose 200.00 mg/kg intraperitoneally once daily for five days, survival time treated/control, read-out: P388 in vivo T/C × 100): 169%
240 nM | 100 nM | CCN(CC)CCn1nc2c3c(c(N=CN(C)C)ccc31)Sc1ccccc1-2 [CH2CH2N(C2H5)2 / N=CHN(CH3)2, N'-[2-(2-(Diethylamino)ethyl]-2H[1]benzothiopyrano[4,3,2-cd]indazol-5-yl]-N,N-dimethyl-methanimidamide] | 16 mm | 0 mm | 0 mm | – | – | 145% | 206% | – | 0 mm | – | zone of inhibition at 1000 µg/mL (Bacillus subtilis 04555): 16 mm
88 nM | 24 nM | NCCn1nc2c3c(c(NCCNCCO)ccc31)Sc1ccccc1-2 [CH2CH2NH2 / NHCH2NHCH2CH2OH, 2-[[2-[[2-(2-aminoethyl)-2H[1]benzothiopyrano[4,3,2-cd]indazol-5-yl]amino]ethyl]amino]ethanol] | 0 mm | – | 0 mm | – | – | – | – | 15 mm | 0 mm | – | zone of inhibition at 500 µg/mL (Bacillus subtilis 04555): 15 mm
1400 nM | 570 nM | O=C1OCCN1CCNc1ccc2c3c(nn2CCNCCO)-c2ccccc2Sc13 [CH2CH2NHCH0H2OH /] | 0 mm | – | 15 mm | – | – | – | – | – | – | 17 mm | zone of inhibition at 1000 µg/mL ([2]; 1 mg/ml): 14 mm; zone of inhibition at 1000 µg/mL (Bacillus subtilis 04555): 16 mm

Further lines, the molecule ahead of its results:

Structure (SMILES) | IC50 (HCT-8 cells; [8]) | IC50 (L1210 cells; [9]) | zone of inhibition at 3000 µg/mL [1] | zone of inhibition at 3000 µg/mL [2] | zone of inhibition at 3000 µg/mL (Escherichia coli 04863) | zone of inhibition at 3000 µg/mL (Bacillus subtilis 04555) | response vs control in vivo at 12.5 mg/kg [4, 7] | response vs control in vivo at 25 mg/kg [4, 7] | response vs control in vivo at 50 mg/kg [4, 7] | zone of inhibition at 500 µg/mL [2] | zone of inhibition at 3000 µg/mL [3] | zone of inhibition at 1000 µg/mL [3] | also measured
CCN(CC)CCn1nc2c3c(c(NCCNCCO)ccc31)Sc1c(O)ccc(O)c1-2 [2-[2-(Diethylamino)ethyl]-5-[[2-[(2-hydroxyethyl)amino]ethyl]amino]-2H[1]benzothiopyrano[4,3,2-cdlindazole-7,10-diol] | – | – | 0 mm | 14 mm | 0 mm | 0 mm | 118% | 121% | 138% | – | – | – | IC50 (HCT-8 cells; [5]): > 1500 nM; zone of inhibition at 500 µg/mL ([3]; 0.5 mg/ml): 15 mm; IC50 (L1210 cells; [6]): > 1500 nM; response vs control in vivo at 6.25 mg/kg [4, 7]: 123%
CCN(CC)CCn1nc2c3c(c(N)ccc31)Sc1c(O)ccc(O)c1-2 [CH2CH2N(C2H5)2 / NH2 / 7,10-(OH)2, 5-amino-2-[2-(diethylamino)ethyl]-2H[1]-benzothiopyrano[4;3,2-cd]indazole-7,10-diol] | – | – | 0 mm | 0 mm | 0 mm | 0 mm | – | – | – | – | 19 mm | – | IC50 (HCT-8 cells; [5]): > 2200 nM; IC50 (L1210 cells; [6]): > 2200 nM
CCN(CC)CCn1nc2c3c(c(N)ccc31)Sc1ccccc1-2 [CH2CH2N(C2H5)2 / NH2, 5-Amino-N,N-diethyl-2H[1]benzothiopyrano[4,3,2-cd]indazole-2-ethanamine] | 1100 nM | 130 nM | – | 0 mm | 0 mm | 0 mm | 144% | 162% | – | – | – | 14 mm | zone of inhibition at 1000 µg/mL ([1]; 1 mg/ml): 14 mm
CCN(CC)CCNc1ccc2c3c(nn2CCN(CC)CC)-c2ccccc2Sc13 [CH2CH2N(C2H5)2 / NHCH2CH2N(C2H5)2, 5-[[2-(Diethylamino)ethyl]amino]-N,N-diethyl-2H[1]-benzothiopyrano[4,3,2-cd]indazofe-2-ethanamine] | 450 nM | 140 nM | 17 mm | – | – | – | – | 155% | – | 14 mm | 15 mm | – | zone of inhibition at 100 µg/mL (Escherichia coli 04863; 0.1 mg/ml): 18 mm; zone of inhibition at 100 µg/mL (Bacillus subtilis 04555; 0.1 mg/ml): 15 mm
CCN(CC)CCn1nc2c3c(c(NCCN)ccc31)Sc1ccccc1-2 [CH2CH2N(C2H5)2 / NHCH2CH2NH2, N-[2-[2-(Diethylamino)ethyl]-2H[1]benzothiopyrano[4,3,2-cd]indazol-5-yl]-1,2-ethanediamine] | 97 nM | 46 nM | 0 mm | – | 0 mm | – | 297% | 148% | – | 19 mm | – | 15 mm | zone of inhibition at 500 µg/mL (Bacillus subtilis 04555): 20 mm; P388 in vivo Cures ([4]; Dose 12.50 mg/kg): Cures; P388 in vivo Cures ([4]; Dose 25.00 mg/kg): Cures; response vs control in vivo at 3.12 mg/kg ([4]; Mus musculus, P388, ip, 120 h, Dose 3.12 mg/kg intraperitoneally once daily for five days, read-out: P388 in vivo T/C × 100): 178%; response vs control in vivo at 6.25 mg/kg [4, 7]: 215%

Reference: EP0114002B1, “Benzothiopyrano(4,3,2,-cd)indazoles, their pharmaceutical compositions and methods for their production” (WARNER-LAMBERT COMPANY, priority 1983, dated 1984)
